Measured values reported in paper PMC8314276, “A Commercial Extract of Cyanotis arachnoidea Roots as a Source of Unusual Ecdysteroid Derivatives with Insect Hormone Receptor Binding Activity” (Journal of Natural Products, 2021).
“And” between values parts separate entries of the source, which are not always exact repeats. Identical values can stand only once.

Columns and labels:
[1] = molecular target: T1, EcR (Spodoptera frugiperda, UniProt Q8MWR2); test: Reporter gene assay (hsp27 ecdysone response element/firefly luciferase) in Sf-9 cells; type: cell-based, insect; settings: 0.1 μM, Sf-9 cells, luciferase reporter
T1 sequence (Q8MWR2 1-403): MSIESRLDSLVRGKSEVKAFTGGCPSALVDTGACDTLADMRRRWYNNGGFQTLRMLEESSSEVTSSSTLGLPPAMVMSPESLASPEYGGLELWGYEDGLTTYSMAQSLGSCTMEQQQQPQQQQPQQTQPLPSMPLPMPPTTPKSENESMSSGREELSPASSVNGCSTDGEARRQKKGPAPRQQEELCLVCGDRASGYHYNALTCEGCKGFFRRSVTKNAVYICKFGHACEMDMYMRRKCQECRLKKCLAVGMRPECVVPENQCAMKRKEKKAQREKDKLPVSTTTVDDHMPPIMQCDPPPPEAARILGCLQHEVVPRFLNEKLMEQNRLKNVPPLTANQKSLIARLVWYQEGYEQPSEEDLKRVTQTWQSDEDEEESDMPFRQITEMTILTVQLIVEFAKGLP
Experimental: The reporter gene assay was performed in Sf-9 cells according to a previously reported method.[46] Briefly, a reporter plasmid was constructed from pBmbA/hsp27/firefly luciferase (hsp27/Fluc), in which seven repeats of hsp27 ecdysone response element were inserted. This plasmid was a kind gift from Dr. Luc Swevers (Institute of Biosciences & Applications, National Center for Scientific Research “Demokritos”, Athens, Greece). The plasmid was amplified in Escherichia coli and purified using a QIAGEN plasmid midi kit (QIAGEN GmbH, Hilden, Germany). A cell suspension (approximately 2.0 × 10^6 cells/mL; 400 μL) was added to each well of a 24-well plate, and it was incubated for 1 h. Then, 200 μL of a mixture of plasmids and TransFast transfection reagent (Promega; Madison, WI, USA) was added to each well. After incubating for 24 h, 6 μL of a solution of test compound (1% v/v) was added and incubated. After 48 h, the medium in each well was removed with a pipet. Cells were lysed by adding 100 μL/well of Passive Lysis Buffer and incubating for 15 min at 25 °C. The lysate (20 μL) was transferred to a 96-well microplate for the luciferase assay. Chemical luminescence was measured using a 96-microplate GLOMAX luminometer (Promega), according to the manufacturer’s instructions.

[2] = molecular target: T2, insect ecdysteroid receptor (EcR) (Spodoptera frugiperda, UniProt Q8MWR2); test: EcR binding assay ([3H]PonA displacement in Sf-9 cells)
T2 construct: To an Sf-9 cell suspension (400 μL; (2.0–3.0) × 10^6 cells/mL) in a disposable culture tube; endogenous in cells; host or cells: Sf-9 cells
T2 sequence (Q8MWR2 1-403): T1 sequence (Q8MWR2 1-403)
Experimental: Tritiated PonA ([^3H]PonA; 3.5 TBq/mmol) was custom synthesized by American Radiolabeled Chemicals, Inc. (St. Louis, MO, USA). A stock solution of [^3H]PonA (30 000 dpm/μL, ∼0.1 μM) was prepared in 70% aqueous EtOH. Cold PonA and 20E were obtained from Enzo Biochem Inc. (New York, NY, USA) and Sigma-Aldrich Co. (St. Louis, MO, USA), respectively. Tebufenozide was obtained from stock samples. All test compounds were dissolved in DMSO. An Sf-9 cell line was cultured in EX-CELL 420 medium (SAFC Biosciences, Inc., Lenexa, KS, USA) supplemented with 10% fetal bovine serum.
The binding assay was performed as described previously with some modifications.[43],[44] To an Sf-9 cell suspension (400 μL; (2.0–3.0) × 10^6 cells/mL) in a disposable culture tube (12 mm × 75 mm) was added a test compound solution (1 μL), followed by a [^3H]PonA solution (2 μL, 60 000 dpm). After incubation at 25 °C for 30 min, the cell suspension was diluted with water (3 mL) and filtered through a glass fiber filter GF/B (25 mm; Whatman plc, Maidstone, UK). The filter was washed with water (2 × 3 mL), dried, and transferred to a glass vial. To the vial were added 3 mL of Insta-Gel Plus (PerkinElmer Inc., Waltham, MA, USA), and the radioactivity was measured with an LSC-8000 counter (Aloka, Tokyo, Japan). DMSO and PonA (final concentration: 2.7 μM) were used to determine the total and nonspecific binding, respectively. The test compounds were first screened at 25 μM, and the compounds with an inhibition rate of ≥50% were subjected to concentration–response experiments. The 50% inhibition concentration for [^3H]PonA binding [IC50 (M)] was determined using probit analysis,[45] and the logarithm of its reciprocal, pIC50, was used as the index of the binding affinity.

## CC(C)CC[C@@H](O)[C@](C)(O)[C@H]1CC[C@H]2C3=CC(=O)[C@@H]4C[C@@H](O)[C@@H](O)C[C@]4(C)C3=CC[C@]12C [Compound 5, 14-Deoxydacryhainansterone]
[1]
  agonistic activity in reporter gene assay at 0.1 μM: agonists
[2]; IC50, EcR binding, inhibition of [3H]PonA binding, Sf-9 cells
  IC50: 41.7 nM and 42 nM
[2]; Sf-9 cells, [3H]PonA binding
  EcR binding activity in words: strong
[2]; fold higher than 20E
  EcR binding potency/affinity relative to 20E: approximately 4 times
